Experimental data from US6423688B1, “Dipeptide and related compounds which inhibit leukocyte adhesion mediated by VLA-4” (Athena Neurosciences, Inc., priority 1997, dated 2002).
Peptide text beside a SMILES is read from it. * marks the point of attachment. Tos = Cc1ccc(S(=O)(=O)*)cc1

Compound	melting point [°C]
Cc1ccc(S(=O)(=O)N2CCC[C@H]2C(=O)N[C@@H](CC(N)=O)C(=O)O)cc1 [Example 2, N-(Toluene-4-sulfonyl)-L-prolyl-L-asparagine] (Tos-Pro-Asn-OH)	178 to 180
Cc1ccc(S(=O)(=O)N2CCC[C@H]2C(=O)N[C@@H](CCC(N)=O)C(=O)O)cc1 [Example 5, N-(Toluene-4-sulfonyl)-L-prolyl-L-glutamine] (Tos-Pro-Gln-OH)	45 to 55
